The values below are quoted from earlier work in patent US12649907B2, “Alternate detergents for viral inactivation” (AMGEN INC., priority 2019, dated 2026).

For the data set the following is noted: as indicated by the Hampton Kit; cited from earlier work.
Consider `CCCCCCCCC(=O)N(C)C[C@H](O)[C@@H](O)[C@H](O)[C@H](O)CO` [MEGA-9], for which the CMC is recorded as 25 mM.

For the compound `CCCCCCCCS[C@@H]1O[C@H](CO)[C@@H](O)[C@H](O)[C@H]1O` [n-Octyl-β-D-Thioglucoside], the CMC is given as 9 mM.

Turning to `OC[C@H]1O[C@H](O[C@H]2[C@H](O)[C@@H](O)[C@H](OCCCCCCCC3CCCCC3)O[C@@H]2CO)[C@H](O)[C@@H](O)[C@@H]1O` [CYMAL ®-7, 7-cyclohexyl-l-heptyl-β-D-maltoside], the CMC is 0.19 mM.

Take `O=C(CCC1CCCCC1)N(CCO)C[C@H](O)[C@@H](O)[C@H](O)[C@H](O)CO` [C-HEGA ®-9]: the CMC is listed as 108 mM.

For `CCCCCCO[C@@H]1O[C@H](CO)[C@@H](O)[C@H](O)[C@H]1O` [n-Hexyl-b-D-glucopyranoside], the CMC was 250 mM.

Turning to `C[C@H](CCC(=O)NCCC[N+](C)(C)CC(O)CS(=O)(=O)[O-])[C@H]1CC[C@H]2[C@@H]3[C@H](O)C[C@@H]4C[C@H](O)CC[C@]4(C)[C@H]3C[C@H](O)[C@]12C` (some centres unmarked) [CHAPSO], the CMC is given as 8 mM.

In the case of `O=C(CCCC1CCCCC1)N(CCO)CC(O)C(O)C(O)C(O)CO` (centres unmarked) [C-HEGA ®-10], the CMC is 35 mM.

For the compound Sucrose monolaurate, the CMC is 0.3 mM.

`CCCCCCCC(=O)N(CCO)C[C@H](O)[C@@H](O)[C@H](O)[C@H](O)CO` [HEGA ®-8]: the CMC is recorded as 109 mM.

`CCCCCCCCCO[C@@H]1O[C@H](CO)[C@@H](O)[C@H](O)[C@H]1O` [n-Nonyl-b-D-glucoside]: the CMC is 6.5 mM.

As to `CCCCCCCCCCCCCC(=O)OC[C@@H](O)COP(=O)([O-])OCC[N+](C)(C)C` [LysoFos ™ Choline 14], the CMC is on record as 0.036 mM.

For `CCCCCCCCCCOP(=O)(O)OCCNC` [FOS-MEA ®-10], the CMC was 5.25 mM.

On to `CCCCCCCCCO[C@@H]1O[C@H](CO)[C@@H](O[C@H]2O[C@H](CO)[C@@H](O)[C@H](O)[C@H]2O)[C@H](O)[C@H]1O` [n-Nonyl-b-D-maltoside], for which the CMC is on record as 6 mM.

Take `OC[C@H]1O[C@H](O[C@H]2[C@H](O)[C@@H](O)[C@H](OCCCCC3CCCCC3)O[C@@H]2CO)[C@H](O)[C@@H](O)[C@@H]1O` [CYMAL ®-4, 4-Cyclohexyl-1-Butyl-β-D-Maltoside]: the CMC is 7.6 mM.

Regarding `CCCCCCCC[N+](C)(C)CCCS(=O)(=O)[O-]` [ZWITTERGENT ® 3-08], the CMC is 330 mM.

Take `C[C@H](CCC(=O)NCCC[N+](C)(C)CCCS(=O)(=O)[O-])[C@H]1CC[C@H]2[C@@H]3[C@H](O)C[C@@H]4C[C@H](O)CC[C@]4(C)[C@H]3C[C@H](O)[C@]12C` [CHAPS]: the CMC was 8 mM.

For the compound `CC(C)CC(CC(C)C)O[C@@H]1O[C@H](CO)[C@@H](O[C@H]2O[C@H](CO)[C@@H](O)[C@H](O)[C@H]2O)[C@H](O)[C@H]1O` [2,6-Dimethyl-4-heptyl-b-D-malto-pyranoside], the CMC was 27.5 mM.

Regarding `CCCCCCCCCC(=O)N(CCO)C[C@H](O)[C@@H](O)[C@H](O)[C@H](O)CO` [HEGA ®-10], the CMC is 7 mM.

As to `CCCCCCCCS[C@@H]1O[C@H](CO)[C@@H](O[C@H]2O[C@H](CO)[C@@H](O)[C@H](O)[C@H]2O)[C@H](O)[C@H]1O` [n-Octyl-β-D-Thiomaltopyranoside], the CMC was 8.8 mM.

`CCCCCCCCCC(=O)N(C)C[C@H](O)[C@@H](O)[C@H](O)[C@H](O)CO` [MEGA-10]: the CMC is 7 mM.

On to `CCCCCCCCCCO[C@@H]1O[C@H](CO)[C@@H](O[C@H]2O[C@H](CO)[C@@H](O)[C@H](O)[C@H]2O)[C@H](O)[C@H]1O` [n-Decyl-b-D-maltoside], for which the CMC is recorded as 1.8 mM.

For `OC[C@H]1O[C@H](O[C@H]2[C@H](O)[C@@H](O)[C@H](OCCCC3CCCCC3)O[C@@H]2CO)[C@H](O)[C@@H](O)[C@@H]1O` [CYMAL ®-3, 3-Cyclohexyl-1-Propyl-β-D-Maltoside], the CMC was 34.5 mM.

Consider n-Decanoylsucrose, for which the CMC was 2.5 mM.
